Laboratory results taken from patent publication US12156860B2, “Disorders implicating PUFA oxidation” (BioJiva LLC, priority 2011, dated 2024).

Assays:
Q-less coq3 yeast = test: Yeast incubated with different ratios of H- and D-PUFA, plate dilution; assay type: cell-based, S. cerevisiae; settings: after 3 hours of treatment, data not shown
Procedure: FIG. 9. […] Wild-type, yeast Q-less coq3, or respiratory deficient cor1 null mutants were incubated in the presence of 200 μM of LA and D2-LA at different ratios of PUFAs. Serial dilutions (1:5) starting at 0.2 OD/ml were spotted on YPD solid plate medium. A zero-time untreated control is shown on the top left. Growth at 30° C.
FIG. 10. […] Serial dilutions (1:5) starting at 0.2 OD/ml were spotted on YPD solid plate medium. Growth at 30° C.
Wild-type, yeast Q-less coq3, or respiratory deficient cor1 null mutants were incubated in the presence of 200 μM of LA and D2-LA at different ratios of PUFAs, as indicated in FIG. 9. Serial dilutions (1:5) starting at 0.2 OD/ml were spotted on YPD solid plate medium. […] Growth was at 30° C.
Serial dilutions (1:5) starting at 0.2 OD/ml were spotted on YPD solid plate medium. Growth was at 30° C.

[1] = tested on: coq null mutants (Q-less yeast); settings: for protection in the yeast model: compared with D4-linolenic acid; for viability of coq null mutants after fatty acid treatment: 200 μM fatty acid, plate dilution / colony assay
Procedure: FIG. 3. […] Yeast coq3, coq7 and coq9 null mutants were prepared in the W303 yeast genetic background (WT). Yeast strains were grown in YPD medium (1% Bacto-yeast extract, 2% Bacto-peptone, 2% dextrose) and harvested while in log phase growth (OD600 nm=0.1-1.0). Cells were washed twice with sterile water and resuspended in phosphate buffer (0.10 M sodium phosphate, pH 6.2, 0.2% dextrose) to an OD600 nm=0.2. Samples were removed and 1:5 serial dilutions starting at 0.20 OD/ml were plated on YPD plate medium, to provide a zero time untreated control (shown in top left panel). The designated fatty acids were added to 200 μM final concentration to 20 ml of yeast in phosphate buffer. At 2 h, 4 h, and 16 h samples were removed, 1:5 serial dilutions prepared, and spotted onto YPD plate medium. Pictures were taken after 2 days of growth at 30° C.
FIG. 4. […] The fatty acid sensitive assay was performed as described in FIG. 3, except that 100 μl aliquots were removed at 1, 2, and 4 h and, following dilution, spread onto YPD plates. Pictures were taken after 2 to 2.5 days, and the number of colonies counted. Yeast strains include Wild type (circles), atp2 (triangles), or coq3 (squares); Fatty acid treatments include oleic C18:1 (solid line), linolenic, C18:3, n-3 (dashed line) or 11,11,14,14-D4-linolenic, C18:3, n-3, (dotted line).
Q-less yeast (coq mutants) provide an ideal system to assess in vivo autoxidation of fatty acids. Coenzyme Q (ubiquinone or Q) serves as a small lipophilic antioxidant as well as an electron shuttle in the respiratory chain of the mitochondrial inner membrane. Ten S. cerevisiae genes (COQ1-COQ10) are required for coenzyme Q biosynthesis and function, and the deletion of any results in respiratory deficiency (Tran U C, Clarke C F. Mitochondrion 2007; 7S, 562).
A plate dilution assay can be used to assess PUFA sensitivity. This assay can be performed by spotting serial five-fold dilutions of aliquots onto YPD plate media (FIG. 3). The sensitivity of the different strains can be observed by visual inspection of the density of cells in each spot.

WT (W303) yeast = settings: 200 μM, 4 h incubation
Procedure: Uptake of exogenously supplied fatty acids by yeast. WT (W303) yeast were harvested at log phase and incubated in the presence of 200 μM of the designated fatty acid for either 0 or 4 h.
Wild-type yeast were harvested during log phase growth and incubated in the presence of exogenously added fatty acid (for 0 or 4 h) in the presence of phosphate buffer plus 0.20% dextrose, as described for the fatty acid sensitivity assay. Cells were harvested, washed twice with 10 ml sterile water, and the yeast cell pellets were then processed by alkaline methanolysis as described above. The fatty acids are detected as methylesters (FAMEs) following GC-MS with C17:0 added as an internal standard (FIG. 6).

[2] = tested on: stroke-prone spontaneously hypertensive (SHRSP) rat; test: SHRSP rat model of hypertension; assay type: in vivo; settings: SHRSP rats, 8 weeks
Excerpt: The stroke-prone spontaneously hypertensive (SHRSP) rat model of hypertension, which has been previously described (McIntyre et al., 1997 Hypertension 30:1517; Alexander et al., 1999 Cardiovasc. Res. 43:798; Fennell et al., 2002 Gene Ther. 9:110), can be used for the assessment of a compound's ability to mitigate hypertension.

NASH (MCD diet) rats = test: NASH induced by methionine and choline deficient diet; assay type: in vivo, Rattus norvegicus, Wistar; settings: daily over three months
Procedure: (§1) Fifty male heterozygous rats, 45-days-old, from the Rattus norvegicus species and Wistar lineage are kept in polypropylene cages, in groups of five animals, under a 12 h-clear/dark cycle and under controlled temperature conditions. The induction of NASH is carried out through a diet deficient in methionine and choline (MCD) according to known procedures (See Rogers A E, Newberne P M. Alcoholic and nutritional fatty liver and cirrhosis. Am J Pathol. 1973; 73:817-20). […] During the study period, the animals are weighed on a weekly basis and the drugs dose is readjusted as necessary. On the first day of the study, besides determining the animals' weight, their blood is collected through retro-orbital plexus puncture for biochemical analysis: alanine-aminotransferase (ALT) and aspartate-aminotransferase (AST) (colorimetric test, using the Labtest kit). One day after concluding the induction period and compound administration (90 days), animals are sacrificed by decapitation. Once more, each animal's blood is collected for biochemical analysis. Then, laparotomy with total hepatectomy and liver preparation are carried out for lipoperoxidation (LPO) and histological analysis. Liver tissue samples are analyzed using the thiobarbituric-acid reactant substance (TBARS) measurement according to known methods (See Lowry et al. Protein measurement with the folin phenol reagent. J Biol Chem. 1951; 193:265-75) and the results are expressed in nmol of malondialdehyde/mg of protein. Slides with liver fragments are also dyed with hematoxilin-eosine and picrosirius, in order to evaluate the fibrosis level, and with Perls to evaluate the presence of iron stores, having been examined by an only pathologist blinded to the animals' data. The minimum histological criterion for NASH diagnosis is the presence of hepatocellular ballooning-related steatosis, involving zone 3 and lobular inflammatory infiltrate. Mallory corpuscles and sinusoidal fibrosis, involving zone 3 might be present or not. The graduation of both necroinflammatory and fibrosis activity is carried out according to known classifications (See Brunt E M, Janney C G, Di Bisceglie A M, Neuschwander-Tetri B A, Bacon B R. Nonalcoholic steatohepatitis: a proposal for grading and staging the histological lesions. Am J Gastroenterol. 1999; 94:2467-74).

rat hearts = test: Langendorf isolated heart perfusion model, echo- and electrocardiography; assay type: in vivo; settings: rats, 8 weeks supplementation
Procedure: Test compounds disclosed herein can also be assessed using the Langendorf isolated heart perfusion model. […] Following the treatment period, rat hearts are analyzed by echocardiography for measurement of muscle thickness of the left ventricle, left atrium, right ventricle, and right atrium and electrocardiography for measuring electrical activity. After live evaluation, rats are humanely sacrificed and their hearts isolated and connected to the Langendorf isolated perfusion system (See Jennings et al., Am. Surg. 2004; 70(9), 797-800). Left ventricular pressure is then measured with a left ventricular balloon. Coronary flow is also measured. Cardiac function is further assessed by determining the effect of administration of test compounds on the rate of contraction and relaxation of the heart. To determine whether any observed effects on cardiac function are due to the effect of the test compound on mitochondrial function, mitochondrial activity pre-ischemia and post-ischemia is assessed for each of the treatment groups.

[3] = tested on: alcoholic liver disease rats; test: Alcoholic liver disease and cirrhosis induced by 5% ethanol diet; assay type: in vivo, Rattus norvegicus, Wistar; settings: 5% ethanol diet rats, daily over three months
Procedure: as §1, with “alcoholic liver disease and cirrhosis” for “NASH”, “containing 5% ethanol […].” for “deficient in methionine and choline (MCD) according to known procedures (See Rogers A E, Newberne P M. Alcoholic and nutritional fatty liver and cirrhosis. Am J Pathol. 1973; 73:817-20).”, “days), the” for “days),”, “data.” for “data. The minimum histological criterion for NASH diagnosis is the presence of hepatocellular ballooning-related steatosis, involving zone 3 and lobular inflammatory infiltrate. Mallory corpuscles and sinusoidal fibrosis, involving zone 3 might be present or not. The graduation of both necroinflammatory and fibrosis activity is carried out according to known classifications (See Brunt E M, Janney C G, Di Bisceglie A M, Neuschwander-Tetri B A, Bacon B R. Nonalcoholic steatohepatitis: a proposal for grading and staging the histological lesions. Am J Gastroenterol. 1999; 94:2467-74).”

[4] = Kinetics of O2 consumption during AMVN-initiated oxidation in chlorobenzene (glass capillary microvolumeter); assay type: physicochemical
Procedure: FIG. 7. Kinetics of O2 consumption accompanied the oxidation of 0.71 M LA (plots 1 and 2) and 0.71 M D2-LA (plot 3) in chlorobenzene initiated by 40 mM AMVN at 37° C. Plot 2-0.23 mM HPMC was added to 0.71 M LA.
The kinetics of oxygen consumption during the oxidation of LA and D2-LA was studied with a glass capillary microvolumeter (FIG. 7). The rate of oxidation, ROX, was measured as a slope of [O2] traces. The rate of initiation, RIN, was determined by the inhibitor method with HPMC (“6-hydroxy-2,2,5,7,8-pentamethylbenzochroman”) as a reference inhibitor. RIN was calculated from the induction period of inhibited oxidation, tIND: RIN=2·[HPMC]/tIND. […] When the process was inhibited by 0.23 mM chain-breaking antioxidant HPMC, the duration of the induction period, tIND, was about 48 min, with the RIN value of around 0.16×10^−6 M/s. […] The latter precludes a direct determination of RIN. […] An estimated kinetic isotope effect (“KIE”), from comparison of ROX for LA and D2-LA, was around 6.1×10^−6/0.18×10^−6≈35. A similar KIE was determined during the oxidation of LA and 11,11-d2-LA in Triton X-100 aqueous micelles (data not shown). For comparative purposes, the theoretical KIE is 6.9 at 25° C. See Carpenter, “Determination of Organic Reaction Mechanisms” (John Wiley & Sons, 1984), p. 89.

[5] = tested on: coq null mutants (Q-less yeast); settings: cited from earlier work; for sensitivity of Q-less yeast to fatty acid treatment: compared with wild-type parental strain
[6] = cited from earlier work
[7] = tested on: wild-type (W303-1B) yeast cells; settings: four hour treatment; cited from earlier work

[2H]C(/C=C\CCCCC)/C=C\CCCCCCCC(=O)O (stereo not shown) [11,11-D,H-LA, [11^−2 H]-linoleic acid]
cell viability (Q-less coq3 yeast): no detectable loss in cell viability

[2H]C([2H])(/C=C\C/C=C\CC)C/C=C\CCCCCCC(=O)O [11, 11-D2-linolenic acid, 11,11-Dideutero-cis,cis,cis-octadeca-8,12,15-trienoic acid]
protection in the yeast model [1]: comparable protection

[2H]C([2H])(/C=C\CC)/C=C\CC/C=C\CCCCCCC(=O)O [14, 14-D2-linolenic acid, 14,14-Dideutero-cis,cis,cis-octadeca-8,12,15-trienoic acid]
protection in the yeast model [1]: comparable protection

[2H]C([2H])(/C=C\CC)/C=C\C([2H])([2H])/C=C\CCCCCCCC(=O)O [D4-linolenic acid, 11,11,14,14-Tetradeutero-cis,cis,cis-9,12,15-Octadecatrienoic acid]
viability of coq null mutants after fatty acid treatment [1]: resistant to PUFA-mediated cell killing | viability of cells compared with oleic acid treatment ([1]; quantitative colony counting (FIG. 4)): similar | incorporation of fatty acid by yeast (WT (W303) yeast): avidly incorporate | systolic blood pressure [2]: reduction in systolic blood pressure | amount of MDA in liver samples (TBARS) (NASH (MCD diet) rats): reduce the amount of MDA found in liver samples | histological signs of NASH (NASH (MCD diet) rats): reverse the histological signs of NASH | symptoms and markers associated with cardiac disorders (rat hearts): reduce symptoms and markers associated with cardiac disorders | amount of MDA in liver samples (TBARS) [3]: reduce the amount of MDA found in liver samples | histological signs of fatty liver disease [3]: reverse the histological signs of fatty liver disease

CCCCC/C=C\C/C=C\CCCCCCCC(=O)O [LA, cis,cis-9,12-Octadecadienoic acid, reference compound]
rate of oxidation, ROX ([4]; 0.71 M in chlorobenzene, 40 mM AMVN, 37° C.): 6.1e-06 M/s | length of the kinetic chain, ROX/RIN ([4]; for D2-LA assuming RIN comparable to that of LA): 38±3 | oxidizability ([4]; n=5): 0.0215±0.008 M^−0.5 s^−0.5

CCCCC/C=C\C/C=C\C/C=C\C/C=C\CCCC(=O)O [arachidonic acid]
sensitivity of Q-less yeast to fatty acid treatment [5]: hypersensitive

[2H]O[2H] [heavy water, D2O]
amount a 70 kg person might drink without serious consequences [6]: 4.8 L

CC/C=C\C/C=C\C/C=C\CCCCCCCC(=O)O [linolenic acid, cis,cis,cis-9,12,15-Octadecatrienoic acid, reference compound]
viability of coq null mutants after fatty acid treatment [1]: dramatic loss of viability | incorporation of fatty acid by yeast (WT (W303) yeast): avidly incorporate | wild-type cells remaining viable [7]: 70% | viable Q-less (coq2, coq3, and coq5) yeast mutants ([5]; following a four hour treatment): Less than 1%

CCCCCCCC/C=C\CCCCCCCC(=O)O [oleic acid]
sensitivity of Q-less yeast to fatty acid treatment [5]: behave the same as the wild-type parental strain
